Data as given in patent publication US20140243400A1, “COMPOSITIONS COMPRISING CITRIC ACID AND MALIC ACID AND METHODS AND USES THEREOF” (University of Alaska Anchorage, priority 2013, published 2014).
Entries after “also recorded” stand apart in the source; their conditions may differ.

Key:
Fischer F344 inbred rats = experiment: Spatial memory, rewarded alternation in T-maze, aged rats; assay type: in vivo; details: for T-maze alternation: 200 mg/Kg in water, 6 weeks supplementation; for spatial memory vs control rats: aged F344 rats, 200 mg/Kg, T-maze
Experimental: Spatial memory was measured by alternation in a T-maze. […] Both aged groups supplemented with malic acid performed equivalently to non-impaired rats, at 85% correct alternation, or better.
24 male Fischer F344 inbred rats were evaluated at 10 months and 23 months of age. Half were provided supplemental dietary malate. Following 6 weeks supplementation, spatial memory was evaluated using a rewarded alternation procedure in a T-maze apparatus (10 trials per subject). Healthy, non-impaired, rats alternate at 85% while hippocampectomized rats incapable of encoding spatial memories alternate at chance, 50%. […] The 23 month old, control, rats were severely impaired, hardly scoring better than chance, at 57% alternation. 23 month old malate-supplemented rats alternated at 85%, a score equivalent to a young, not impaired rat. (FIG. 10).

[1] = Tolerability of oral malate in aged rats; assay type: in vivo; details: 24 aged rats, 200 mg/Kg orally, voluntary consumption in water
[2] = tested on: SH-SY5Y human neuroblastoma cells; experiment: Intracellular GSH after malate pretreatment and peroxide insult; assay type: cell-based; details: 0.5 μg/mL malate for 1 hour prior to peroxide insult
Experimental: GSH is widely considered the cornerstone of endogenous redox defense. Intracellular concentrations of total GSH clearly decrease in response to oxidative insult, confirming GSH is actively consumed as part of the endogenous redox defense response in human neurons, specifically to produce regenerate antioxidative enzymes. […] All treatments were performed in triplicate. Following treatment, neurons were rinsed with PBS and evaluated for total GSH (excluding GSSG) via Promega GSH-Glo Glutathione Assay. The assay is based on the conversion of a lucifin derivative into lucifierin in the presence of GSH. […] Cells were treated with 0.5 μg/mL malate in serum free DMEM for 1 hour prior to peroxide insult.

[3] = tested on: neutral sphingomyelinase (nSMase); experiment: nSMase-mediated ceramide release in TNF-α-treated neuroblastomas; assay type: cell-based; details: neuroblastomas treated with TNF-α in conjunction with citrate or malate at 0.5 μg/ml
Experimental: Neuroblastomas were not treated (NT) or treated with tumor necrosis factor α (TNF-α), either alone or in conjunction with citrate or malate at 0.5 μg/ml.
Ceramides and ceramide metabolites are important intracellular signaling molecules which influence inflammation, proliferative and apoptotic processes, neurodegeneration, and insulin sensitivity. Elevated ceramides are associated with neurodegenerative disorders including Alzheimer's and Parkinson's disease as well as normal aging.

[4] = tested on: SH-SY5Y human neuroblastoma cells; experiment: Intracellular malate after malate pretreatment and peroxide insult; assay type: cell-based
Experimental: Intracellular malate decreases 20% in the first 30 minutes following peroxide treatment and continues to slowly decrease over the rest of the time course. SH-SY5Y human neuroblastoma cells were grown to 90% confluency on 100 mm tissue culture dishes in 10% FBS supplemented DMEM, serum starved for 12 hours, and treated with 100 μM H2O2 in serum free DMEM for either 0, 15, 30, 45, 60, or 90 minutes. All treatments were performed in triplicate. Following treatment, neurons were rinsed with PBS, harvested and evaluated for total […] via abcam malate assay kit (ab83391). […] Cells were treated with 0.5 μg/mL malate in serum free DMEM for 1 hour prior to peroxide insult. Malate supplementation increased intracellular malate by nearly 50%.

SMILES | T-maze alternation (Fischer F344 inbred rats; 10 month old F344 rats) | T-maze alternation (Fischer F344 inbred rats; 23 month old F344 rats) | spatial memory vs control rats (Fischer F344 inbred rats) | spatial memory vs control rats (Fischer F344 inbred rats; listed as malic acid) | T-maze correct alternation (Fischer F344 inbred rats; both aged groups (10 and 23 months), oral 200 mg/Kg) | ill effects observed [1] | intracellular GSH after peroxide insult [2] | intracellular GSH vs non-supplemented cells ([2]; 0-60 minutes post peroxide) | nSMase-mediated ceramide release / nSMase activation [3] | intracellular malate after peroxide insult ([4]; 0.5 μg/mL malate for 1 hour prior to peroxide insult) | increase of intracellular malate ([4]; 0.5 μg/mL malate in serum free DMEM for 1 hour) | nSMase-mediated ceramide release / nSMase activation ([3]; listed as Citrate)
O=C(O)CC(O)C(=O)O (stereo not shown) [malate, malic acid] | 92.5% | 85% | statistically significant improvement in spatial memory | significantly improves performance in spatial memory | ≥ 85% | no ill effects were observed | higher levels of GSH than non-treated and non-insulted cells; also recorded: prevent critical depletion of GSH | significantly higher levels of GSH than non-supplemented cells; also recorded: increase intracellular pools of GSH | significantly decrease; also recorded: able to curb nSMase activation | higher levels than non-treated and non-insulted cells; also recorded: prevent critical depletion of malate | ~50% | 
O=C(O)CC(O)(CC(=O)O)C(=O)O [citrate, citric acid] |  |  |  |  |  |  |  |  | able to curb nSMase activation |  |  | significantly decrease
